Experimental data reported in the NIST ThermoML archive (doi:10.1021/je0342769).
Where “and” joins values, the source holds several entries; their conditions need not be identical. Identical values can stand only once.

Conditions: Liquid, Closed cell (Static) method

FC(F)CC(F)(F)F [1,1,1,3,3-pentafluoropropane]
Conditions	vapor or sublimation pressure
255.22 K	21.93 kPa
259.37 K	27.28 kPa and 27.27 kPa
263.27 K	33.25 kPa and 33.24 kPa
267.31 K	40.47 kPa
271.03 K	48.26 kPa
275.31 K	58.66 kPa
279.32 K	69.99 kPa and 69.98 kPa
279.33 K	69.98 kPa and 69.99 kPa
283.2 K	82.37 kPa and 82.36 kPa
285.08 K	89.02 kPa and 89.05 kPa
288.91 K	103.68 kPa and 103.67 kPa
291.16 K	113.41 kPa and 113.43 kPa
291.17 K	113.42 kPa
292.62 K	119.97 kPa and 120.01 kPa
295.55 K	134.37 kPa and 134.41 kPa
298.31 K	149.04 kPa and 149.05 kPa
300.16 K	159.38 kPa
313.13 K	250.2 kPa and 250.26 kPa and 250.34 kPa
317.43 K	287.67 kPa and 287.72 kPa and 287.84 kPa
321.77 K	329.9 kPa and 329.87 kPa
327.34 K	390.52 kPa and 390.61 kPa
333.55 K	467.79 kPa
344.96 K	639.43 kPa
347.8 K	688.83 kPa and 688.9 kPa
351.54 K	757.91 kPa and 757.93 kPa and 757.86 kPa
354.13 K	808.71 kPa
354.15 K	809.38 kPa
357.7 K	883.2 kPa
362.21 K	984.31 kPa and 984.35 kPa
364.47 K	1038.2 kPa
367.1 K	1103.6 kPa
367.11 K	1103.6 kPa
371.11 K	1209.3 kPa
371.12 K	1209.3 kPa
374.81 K	1313.1 kPa
374.95 K	1317.3 kPa
377.03 K	1378.9 kPa
381.38 K	1514.3 kPa
384.5 K	1617.4 kPa
388.32 K	1751.2 kPa
393.64 K	1950.8 kPa

FC(C(F)(F)F)C(F)(F)F [1,1,1,2,3,3,3-heptafluoropropane]
Conditions	vapor or sublimation pressure
253.31 K	86.81 kPa
253.32 K	86.83 kPa
253.33 K	86.86 kPa
255.21 K	94.46 kPa
257.26 K	103.23 kPa and 103.26 kPa
259.59 K	114.05 kPa
261.28 K	122.37 kPa
263.26 K	132.72 kPa
265.17 K	143.42 kPa
267.15 K	155.12 kPa and 155.14 kPa
269.19 K	167.93 kPa
271.14 K	181.01 kPa
273.13 K	195.16 kPa
273.14 K	195.21 kPa
273.16 K	195.29 kPa
275.15 K	210.31 kPa
275.17 K	210.44 kPa
275.18 K	210.49 kPa
276.99 K	224.91 kPa
279.19 K	243.27 kPa
281.14 K	260.66 kPa
283.18 K	279.74 kPa
285.18 K	299.49 kPa
285.19 K	299.62 kPa
287.14 K	319.89 kPa
289.07 K	340.97 kPa
289.1 K	341.37 kPa
291.06 K	363.71 kPa
291.16 K	365.01 kPa
293.04 K	387.68 kPa
293.15 K	388.98 kPa
293.23 K	390.05 kPa
295.22 K	415.24 kPa
295.32 K	416.61 kPa
297.21 K	441.61 kPa
297.22 K	441.76 kPa
299.07 K	467.46 kPa
299.16 K	468.9 kPa
301.54 K	503.72 kPa
303.66 K	536.19 kPa
305.19 K	560.59 kPa
307.19 K	593.83 kPa
309.51 K	634.38 kPa
311.16 K	664.23 kPa
313.13 K	701.36 kPa
315.11 K	740.37 kPa
317.15 K	781.99 kPa
317.5 K	789.45 kPa
319.51 K	832.46 kPa
321.16 K	869.25 kPa
323.13 K	914.73 kPa
323.17 K	915.9 kPa
325.11 K	962.18 kPa
329.17 K	1065.4 kPa
333.69 K	1190.1 kPa
339.17 K	1355.8 kPa
344.87 K	1545.3 kPa
349.82 K	1725.8 kPa
353.22 K	1859.3 kPa
357.13 K	2022.6 kPa
361.12 K	2201.1 kPa
364.88 K	2380.9 kPa
369.16 K	2600 kPa
373.22 K	2825.1 kPa and 2825.2 kPa and 2825.3 kPa
